Target: T1, GPR119 (UniProt Q8TDV5, S309L, species not given)
T1 sequence (Q8TDV5 1-335 S309L): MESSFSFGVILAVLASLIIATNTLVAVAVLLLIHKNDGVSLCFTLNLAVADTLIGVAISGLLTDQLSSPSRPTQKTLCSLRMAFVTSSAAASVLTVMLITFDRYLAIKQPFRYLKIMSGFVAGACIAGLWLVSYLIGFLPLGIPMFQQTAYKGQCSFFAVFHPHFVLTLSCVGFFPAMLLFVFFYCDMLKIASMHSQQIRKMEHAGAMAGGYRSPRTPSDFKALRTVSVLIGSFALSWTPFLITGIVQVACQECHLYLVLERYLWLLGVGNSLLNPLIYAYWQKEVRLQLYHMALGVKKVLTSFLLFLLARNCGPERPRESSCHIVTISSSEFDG
Experiment: GPR119 signaling, cyclic AMP (cAMP) HTRF assay
Assay type: cell-based, human (S309L variant) or murine
Conditions: CHO cells with Gα15 and murine GPR119 or HEK293 Flp-In cells with human GPR119 S309L, read-out: EC50 (agonist activation of GPR119, cAMP)
From the text: The title compound was synthesized using 2-{2-[1-(5-chloropyrimidin-2-yl)piperidin-4-yl]cyclopropyl}ethyl 4-methylbenzenesulfonate from step 1 of this example by a general procedure analogous that described in Example 59. LRMS calc: 424.9; obs: 425.01 (M+1). Measurement of GPR119Signaling Using a Cyclic AMP (cAMP) Homogenous Time Resolved Fluorescence (HTRF) Assay
Chinese hamster ovary (CHO) cell lines stably transfected with the permissive guanine nucleotide binding protein alpha 15 (Gα15) and murine GPR119 were maintained in DMEM media containing FBS, penicillin-streptomycin, puromycin, and G418 (geneticin). Alternatively, human embryonic kidney (HEK)293 Flp-In cells (Invitrogen, Carlsbad, Calif.) were stably transfected with a human SNP variant (S309L) of GPR119 and maintained in DMEM media containing FBS, penicillin-streptomycin, and hygromycin. Agonist activation of the GPR119 receptor was measured in receptor transfected cells described above, treated with compounds of this invention, using a commercial homogenous time resolved fluorescence (HTRF) kit for measurement of cAMP (CisBio, Bedford, Mass.). The assay was performed in 96-well half-volume plates (murine) or 384-well plates (human) following the manufacturers instructions. Briefly, suspended cells were incubated with a dose titration of test compound at room temperature for 60 min, lysed, and incubated with HTRF reagents for an additional 60 min. The plate was read using an Envision multilabel reader (Perkin Elmer) adjusted to read time resolved fluorescence and the cAMP concentrations were extrapolated from a cAMP calibration curve. […] The concentration of test compound required to stimulate a half-maximal response (EC50), and efficacy as compared to an internal agonist control, was determined from a sigmoidal 4-parameter curve fit of the resulting plot of normalized activity versus compound concentration.

SMILES: Clc1cnc(N2CCC([C@H]3C[C@H]3CCNc3cnc(-n4cnnn4)nc3)CC2)nc1 [Ex 26, N-(2-{(1S,2S)-2-[1-(5-chloropyrimidin-2-yl)piperidin-4-yl]cyclopropyl}ethyl)-2-(1H-tetrazol-1-yl)pyrimidin-5-amine]
- EC50: 10 to 50 nM

SMILES: O=C1COC(=O)N1c1ccc(NCC[C@@H]2C[C@@H]2C2CCN(c3ncc(Cl)cn3)CC2)cn1 [Ex 27]
- EC50: 10 to 50 nM

SMILES: Cc1cc(NC(=O)C(C)(C)C)cnc1NCC[C@@H]1C[C@@H]1C1CCN(c2ncc(Cl)cn2)CC1 [Ex 28, N-{6-[(2-{(1S,2S)-2-[1-(5-chloropyrimidin-2-yl)piperidin-4-yl]cyclopropyl}ethyl)amino]-5-methylpyridin-3-yl}-2,2-dimethylpropanamide]
- EC50: < 10 nM

SMILES: Cc1cc(NCC[C@@H]2C[C@@H]2C2CCN(c3ncc(Cl)cn3)CC2)ncc1NC(=O)C(C)(C)C [Ex 29, N-{6-[(2-{(1S,2S)-2-[1-(5-chloropyrimidin-2-yl)piperidin-4-yl]cyclopropyl}ethyl)amino]-4-methylpyridin-3-yl}-2,2-dimethyl propanamide]
- EC50: < 10 nM

SMILES: CC(C)(C)C(=O)Nc1ccc(NCC[C@@H]2C[C@@H]2C2CCN(c3ncc(Cl)cn3)CC2)nc1 [Ex 30, N-{6-[(2-{(1S,2S)-2-[1-(5-chloropyrimidin-2-yl)piperidin-4-yl]cyclopropyl}ethyl)amino]pyridin-3-yl}-2,2-dimethyl propanamide]
- EC50: < 10 nM

SMILES: Cc1cc(NCC[C@@H]2C[C@@H]2C2CCN(c3ncc(Cl)cn3)CC2)cnc1NC(=O)C(C)(C)C [Ex 31, N-{5-[(2-{(1S,2S)-2-[1-(5-chloropyrimidin-2-yl)piperidin-4-yl]cyclopropyl}ethyl)amino]-3-methylpyridin-2-yl}-2,2-dimethyl propanamide]
- EC50: < 10 nM

SMILES: CC(C)(C)C(=O)Nc1ncc(NCC[C@@H]2C[C@@H]2C2CCN(c3ncc(Cl)cn3)CC2)cc1Cl [Ex 32, N-{3-chloro-5-[(2-{(1S,2S)-2-[1-(5-chloropyrimidin-2-yl)piperidin-4-yl]cyclopropyl}ethyl)amino]pyridin-2-yl}-2,2-dimethyl propanamide]
- EC50: < 10 nM

SMILES: CC(=O)Nc1cnc(NCC[C@@H]2C[C@@H]2C2CCN(c3ncc(Cl)cn3)CC2)c(C)c1 [Ex 33, N-{6-[(2-{(1S,2S)-2-[1-(5-chloropyrimidin-2-yl)piperidin-4-yl]cyclopropyl}ethyl)amino]-5-methylpyridin-3-yl}acetamide]
- EC50: 10 to 50 nM

SMILES: CC(=O)Nc1cnc(NCC[C@@H]2C[C@@H]2C2CCN(c3ncc(Cl)cn3)CC2)cc1C [Ex 34, N-{6-[(2-{(1S,2S)-2-[1-(5-chloropyrimidin-2-yl)piperidin-4-yl]cyclopropyl}ethyl)amino]-4-methylpyridin-3-yl}acetamide]
- EC50: 10 to 50 nM

SMILES: CC(=O)Nc1ccc(NCC[C@@H]2C[C@@H]2C2CCN(c3ncc(Cl)cn3)CC2)nc1 [Ex 35, N-{6-[(2-{(1S,2S)-2-[1-(5-chloropyrimidin-2-yl)piperidin-4-yl]cyclopropyl}ethyl)amino]pyridin-3-yl}acetamide]
- EC50: 10 to 50 nM

SMILES: Cc1cc(-n2cnnn2)cnc1NCC[C@@H]1C[C@@H]1C1CCN(c2ncc(Cl)cn2)CC1 [Ex 36, N-(2-{(1S,2S)-2-[1-(5-chloropyrimidin-2-yl)piperidin-4-yl]cyclopropyl}ethyl)-3-methyl-5-(1H-tetrazol-1-yl)pyridin-2-amine]
- EC50: < 10 nM

SMILES: CC1(C(=O)Nc2ccc(NCC[C@@H]3C[C@@H]3C3CCN(c4ncc(Cl)cn4)CC3)nc2)CC1 [Ex 37, N-{6-[(2-{(1S,2S)-2-[1-(5-chloropyrimidin-2-yl)piperidin-4-yl]cyclopropyl}ethyl)amino]pyridin-3-yl}-1-methylcyclopropanecarboxamide]
- EC50: < 10 nM

SMILES: CC1(C(=O)Nc2ccc(NCC[C@@H]3C[C@@H]3C3CCN(c4ncc(Cl)cn4)CC3)cn2)CC1 [Ex 38, N-{5-[(2-{(1S,2S)-2-[1-(5-chloropyrimidin-2-yl)piperidin-4-yl]cyclopropyl}ethyl)amino]pyridin-2-yl}-1-methylcyclopropane carboxamide]
- EC50: < 10 nM

SMILES: Cc1cc(NCC[C@@H]2C[C@@H]2C2CCN(c3ncc(Cl)cn3)CC2)cnc1NC(=O)C1(C)CC1 [Ex 39]
- EC50: < 10 nM

SMILES: Cc1cc(C#N)cc(NCC[C@@H]2C[C@@H]2C2CCN(c3ncc(Cl)cn3)CC2)n1 [Ex 40, 2-[(2-{(1S,2S)-2-[1-(5-chloropyrimidin-2-yl)piperidin-4-yl]cyclopropyl}ethyl)amino]-6-methylisonicotinonitrile]
- EC50: 10 to 50 nM

SMILES: Cc1cc(C#N)nc(NCC[C@@H]2C[C@@H]2C2CCN(c3ncc(Cl)cn3)CC2)c1 [Ex 41, 6-[(2-{(1S,2S)-2-[1-(5-chloropyrimidin-2-yl)piperidin-4-yl]cyclopropyl}ethyl)amino]-4-methylpyridine-2-carbonitrile]
- EC50: 10 to 50 nM

SMILES: Clc1cnc(N2CCC([C@H]3C[C@H]3CCNc3ccc4[nH]ncc4c3)CC2)nc1 [Ex 42, N-(2-{(1S,2S)-2-[1-(5-chloropyrimidin-2-yl)piperidin-4-yl]cyclopropyl}ethyl)-1H-indazol-5-amine]
- EC50: < 10 nM

SMILES: O=C(Cc1ccc(NCC[C@@H]2C[C@@H]2C2CCN(c3ncc(Cl)cn3)CC2)cc1)NC1CC1 [Ex 43, 2-{4-[(2-{(1S,2S)-2-[1-(5-chloropyrimidin-2-yl)piperidin-4-yl]cyclopropyl}ethyl)amino]phenyl}-N-cyclopropylacetamide]
- EC50: 10 to 50 nM

SMILES: O=C1NCc2cc(NCC[C@@H]3C[C@@H]3C3CCN(c4ncc(Cl)cn4)CC3)ccc21 [Ex 44, 5-[(2-{(1S,2S)-2-[1-(5-chloropyrimidin-2-yl)piperidin-4-yl]cyclopropyl}ethyl)amino]isoindolin-1-one]
- EC50: < 10 nM

SMILES: CN1Cc2cc(NCC[C@@H]3C[C@@H]3C3CCN(c4ncc(Cl)cn4)CC3)ccc2C1=O [Ex 45, 5-[(2-{(1S,2S)-2-[1-(5-chloropyrimidin-2-yl)piperidin-4-yl]cyclopropyl}ethyl)amino]-2-methylisoindolin-1-one]
- EC50: 10 to 50 nM

SMILES: O=C1c2ccc(NCC[C@@H]3C[C@@H]3C3CCN(c4ncc(Cl)cn4)CC3)cc2CN1C1CC1 [Ex 46, 5-[(2-{(1S,2S)-2-[1-(5-chloropyrimidin-2-yl)piperidin-4-yl]cyclopropyl}ethyl)amino]-2-cyclopropylisoindolin-1-one]
- EC50: < 10 nM

SMILES: Cc1n[nH]c2ccc(NCC[C@@H]3C[C@@H]3C3CCN(c4ncc(Cl)cn4)CC3)cc12 [Ex 47, N-(2-{(1S,2S)-2-[1-(5-chloropyrimidin-2-yl)piperidin-4-yl]cyclopropyl}ethyl)-3-methyl-1H-indazol-5-amine]
- EC50: < 10 nM

SMILES: Cn1ncc2cc(NCC[C@@H]3C[C@@H]3C3CCN(c4ncc(Cl)cn4)CC3)ccc21 [Ex 48, N-(2-{(1S,2S)-2-[1-(5-chloropyrimidin-2-yl)piperidin-4-yl]cyclopropyl}ethyl)-1-methyl-1H-indazol-5-amine]
- EC50: 10 to 50 nM

SMILES: Cn1cc2cc(NCC[C@@H]3C[C@@H]3C3CCN(c4ncc(Cl)cn4)CC3)ccc2n1 [Ex 49, N-(2-{(1S,2S)-2-[1-(5-chloropyrimidin-2-yl)piperidin-4-yl]cyclopropyl}ethyl)-2-methyl-2H-indazol-5-amine]
- EC50: 10 to 50 nM

SMILES: O=C1Cc2cc(NCC[C@@H]3C[C@@H]3C3CCN(c4ncc(Cl)cn4)CC3)ccc2N1 [Ex 50, 5-[(2-{(1S,2S)-2-[1-(5-chloropyrimidin-2-yl)piperidin-4-yl]cyclopropyl}ethyl)amino]-1,3-dihydro-2H-indol-2-one]
- EC50: 10 to 50 nM

From patent publication US8552022B2, “Substituted cyclopropyl compounds, compositions containing such compounds and methods of treatment” (Merck Sharp & Dohme Corp., priority 2009, dated 2013)
